Test results taken from patent US10059655B2, “Lipids and lipid compositions for the delivery of active agents” (priority 2013, dated 2018).

Key:
[1] = Measurement of mRNA encapsulation in lipid nanoparticles (Quant-iT Ribogreen); assay type: physicochemical; settings: Leptin mRNA in LNP
Outline: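 LNPs were formed by T-junction mixing of ethanolic lipids (cationic lipid:DSPC:cholesterol:PEG lipid 40:10:38:2) with mRNA in citrate pH 5.8–6.0 at N:P 4:1, then dialysed against PBS overnight at 4 °C. RiboGreen fluorescence (ex 480/em 520 nm) was read on samples diluted 400–2,000-fold in TE with or without 0.75% Triton X-100 and quantified against standard curves. Encapsulation % = (Triton − buffer concentration)/Triton concentration.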

[2] = Measurement of siRNA encapsulation (SYBR Gold fluorescence); assay type: physicochemical; settings: FVII siRNA in LNP
Protocol: The lipid nanoparticles (LNPs) were formed by mixing equal volumes of lipids dissolved in alcohol with siRNA dissolved in a citrate buffer by an impinging jet process. The lipid solution contains a cationic lipid compound of the invention, a helper lipid (cholesterol), an optional neutral lipid (DSPC) and a stealth lipid (S010, S024, S027, or S031) at a concentration of 8-16 mg/mL with a target of 12 mg/mL in an alcohol. The siRNA to total lipid ratio is approximately 0.05 (wt/wt). Where a LNP formulation contains four lipid components, the molar ratios of the lipids ranges from 20 to 70 mole percent for the cationic lipid with a target of 40-60, the mole percent of helper lipid ranges from 20 to 70 with a target of 30 to 50, the mole percent of neutral lipid ranges from 0-30, the mole percent of PEG lipid has a range from 1 to 6 with a target of 2 to 5. The concentration of siRNA solution ranges from 0.7 to 1.0 mg/mL with a target of 0.8 to 0.9 mg/mL in a sodium citrate: sodium chloride buffer pH 4-6, with a target of 4.5-5.5. The LNPs are formed by mixing equal volumes of lipid solution in ethanol with siRNA dissolved in a citrate buffer by an impinging jet process through a mixing device with ID ranging from 0.25 to 2.0 mm at a flow rate from 10 to 640 mL/min. The mixed LNP solution is held at room temperature for 0-24 hrs prior to a dilution step. The solution is then concentrated and diafiltered with suitable buffer by ultrafiltration process using membranes with a MW cutoff from 30 to 500 KD. The final product is sterile filtered and stored at 4° C.
SYBR Gold flourescence reagent is used for the determination of siRNA encapsulation in the DLP's. DLP's with and without triton x-100 are used to determine the free siRNA and total siRNA amounts. DLP's samples with and without triton X-100 were excited at 485 nm and flourescence emission is measured at 530 nm. Encapsulation efficiency is calculated based on the following formula: Encapsulation efficiency: [(free siRNA concentration−total siRNA concentration)/(total siRNA concentration)]×100% Encapsulation Data

Row | Structure (SMILES) | % encapsulation mRNA Leptin [1] | % encapsulation siRNA FVII [2]
1 | CCCCC/C=C\C/C=C\CCCCCCCC(=O)OCC(COC(=O)CCCC(CCCCCCC)CCCCCCC)COC(=O)OCCCN(CC)CC (stereo not shown) [Example 25, (9Z,12Z)-3-(((3-(diethylamino)propoxy)carbonyl)oxy)-2-(((5-heptyldodecanoyl)oxy)methyl)propyl octadeca-9,12-dienoate] | 95.3% | 88.7%
2 | CCCCC/C=C\C/C=C\CCCCCCCC(=O)OCC(COC(=O)OCCN(C)C)COC(=O)C(OCCCCCCC)OCCCCCCC (stereo not shown) [Example 26, (9Z,12Z)-3-(2,2-bis(heptyloxy)acetoxy)-2-((((2-(dimethylamino)ethoxy)carbonyl)oxy)methyl)propyl octadeca-9,12-dienoate] | 96.9% | 80.0%
